Measured values: patent US20230016424A1, “HYBRID AMIDE DERIVATIVES OF AMPHOTERICIN B” (The Board of Trustees of the University of Illinois, priority 2019, published 2023)
≈ marks a conversion by molar mass, not a printed value.

What was measured:
C. krusei = test: MIC; assay type: cell-based
[1] = system: C. albicans SN250, C. albicans, C. krusei, C. glabrata, C. tropicalis, A. fumigatus 91, 1163, 1100; test: Average MIC over the tested strains; assay type: cell-based; settings: for MIC: average over the 8 listed strains; for Average MIC for AmB analogue: value of the corresponding AmB analogue, not of the C2’epi compound
A. fumigatus 91 = test: MIC; assay type: cell-based
A. fumigatus 1100 = test: MIC; assay type: cell-based
C. albicans [2] = test: MIC; assay type: cell-based
C. tropicalis = test: MIC; assay type: cell-based
A. fumigatus 1163 = test: MIC; assay type: cell-based
C. glabrata = test: MIC; assay type: cell-based
human erythrocytes = test: MHC hemolysis assay; assay type: cell-based; settings: hemolysis, human erythrocytes, 37° C. 2 hours
Method: MHC (FIG. 21B): The protocol for the hemolysis assay was adapted from the report of Paquet and coworkers (Chem. Eur. J. 2008, 14, 2465-2481). Whole human blood (sodium heparin) was purchased from Bioreclamation LLC (Westbury, N.Y.) and stored at 4° C. and used within two days of receipt. To a 2.0 mL eppendorf tube, 1 mL of whole human blood was added and centrifuged at 10,000 g for 2 minutes. The supernatant was removed and the erythrocyte pellet was washed with 1 mL of sterile saline and centrifuged at 10,000 g for 2 minutes. The saline wash was repeated for a total of three washes. The erythrocyte pellet was suspended in 1 mL of RBC buffer (10 mM NaH2PO4, 150 mM NaCl, 1 mM MgCl2, pH 7.4) to form the erythrocyte stock suspension.
Compounds were prepared as >15 mM stock solutions in DMSO and serially diluted to the following concentrations with DMSO: 7689, 5126, 2563, 2050, 1538, 1025, 769, 513, 384, 256, 205, 154, 103, 77, 51, 26 μM. To a 0.2 mL PCR tube, 24 μL of RBC buffer and 1 μL of compound stock solution were added, which gave final concentrations of […]. Positive and negative controls were prepared by adding 1 μL of DMSO to MilliQ water or RBC buffer, respectively to 0.2 mL PCR tube. To each PCR tube, 0.63 μL of the erythrocyte stock suspension was added and mixed by inversion. The samples were incubated at 37° C. for 2 hours. The samples were mixed by inversion and centrifuged at 10,000 g for 2 minutes. 15 μL of the supernatant from each sample was added to a 384-well place. Absorbances were read at 540 nm using a Biotek H1 Synergy Hybrid Reader (Wanooski, Vt.). Experiments were performed in triplicate and the reported MHC represents an average of three experiments.

[3] = UV-Vis sterol binding assay
Method: However, an alternative method was developed for reproducible formation of homogenous AmB and C2′epiAmB sterol sponge aggregates in vitro. Using these preparations, a quantitative UV-Vis and Principle Component (PCA) based assay for determining the apparent KDs for the binding of AmB and C2′epiAmB to ergosterol and cholesterol (FIGS. 5A-5D) was developed.
UV-Vis Binding Assay (FIG. 21A): The protocol for the sterol binding assay (UV-Vis) was developed in our lab. Compounds were dissolved in DMSO at a final concentration of 1 mM. Sterol were first dissolved in CHCl3 (>200 mM) and then diluted to 1 mM concentration with DMSO. To synthesize the complex 1 ul of compound solution was taken in a clean eppendorf tube (2 ml) and sterol solution (volume depends on the stoichiometry) was added to it and the volume was made up to 20 ul with DMSO. 0.98 ml of PBS buffer was added to the Eppendorf tube and mixed properly. The absorbance of the solution was measured after 30 mins of incubation.

C. albicans SN250 = test: MIC; assay type: cell-based, Candida albicans
[4] = system: human red blood cells and primary hREC; test: Toxicity to human cells; assay type: cell-based
Source text: (§1) This key discovery opened a path to the rational development of a non-toxic AmB variant. To probe its predicted role in sterol binding, the hydroxyl group was synthetically deleted at the C2′ position on the mycosamine appendage. […] Consistent with the sterol sponge model, this derivative retained good activity against yeast but, most importantly, was nontoxic to human red blood cells and primary (hREC) (FIG. 2B).
(§2) A practical 11-step synthesis of C2′epiAmB using a frontier site-selective acylation method was developed (FIG. 4). Wilcock, B. C. et al., Nat Chem 2012, 4 (12), 996-1003; Uno, B. E. A synthesis enabled understanding of Amphotericin B leading to derivatives with improved therapeutic indices. University of Illinois at Urbana-Champaign, 2014. The sterol binding and cell killing activities was then determined.

[5] = isothermal titration calorimetry (ITC) sterol binding; settings: for Cholesterol binding by ITC: within the detection limits of ITC
Source text: as §1, §2

C. albicans [6] = test: Murine model of invasive candidiasis, neutropenic ICR/Swiss mice; assay type: in vivo; settings: single IP injection, deoxycholate complex, 16 mg/kg dose
Source text: Andes, D. et al., Antimicrobial agents and chemotherapy 2001, 45 (3), 922-6. In fact, the PD parameter that best correlates with outcome is Cmax-/MIC. The same was subsequently observed in a pulmonary model of invasive aspergillosis. Wiederhold, N. P. et al., Antimicrobial agents and chemotherapy 2006, 50 (2), 469-73.

rats = test: IV toxicity in rats (BUN, ALT/AST, mortality, Cmax); assay type: in vivo; settings: IV 2, 10, and 17.5 mg/kg (the highest dose tested)
Method: >100 mg of C2′epiAmB was prepared, formulated it as the corresponding deoxycholate complex, and evaluated this derivative head-to-head with AmB-deoxycholate for toxicity and efficacy in animal models.

[7] = system: A. fumigatus (AF293, A1163, ATC204305, AF91); assay type: cell-based
[8] = system: 40 Aspergillus clinical isolates, including azole-resistant A. fumigatus, A. flavus, and A. terreus; test: Antifungal testing against 40 Aspergillus clinical isolates (Fungus Testing Laboratory); assay type: cell-based
CYP2D6 = CYP2D6 (Homo sapiens, UniProt P10635); test: CYP Inhibition; settings: human
CYP2D6, sequence (P10635 whole entry): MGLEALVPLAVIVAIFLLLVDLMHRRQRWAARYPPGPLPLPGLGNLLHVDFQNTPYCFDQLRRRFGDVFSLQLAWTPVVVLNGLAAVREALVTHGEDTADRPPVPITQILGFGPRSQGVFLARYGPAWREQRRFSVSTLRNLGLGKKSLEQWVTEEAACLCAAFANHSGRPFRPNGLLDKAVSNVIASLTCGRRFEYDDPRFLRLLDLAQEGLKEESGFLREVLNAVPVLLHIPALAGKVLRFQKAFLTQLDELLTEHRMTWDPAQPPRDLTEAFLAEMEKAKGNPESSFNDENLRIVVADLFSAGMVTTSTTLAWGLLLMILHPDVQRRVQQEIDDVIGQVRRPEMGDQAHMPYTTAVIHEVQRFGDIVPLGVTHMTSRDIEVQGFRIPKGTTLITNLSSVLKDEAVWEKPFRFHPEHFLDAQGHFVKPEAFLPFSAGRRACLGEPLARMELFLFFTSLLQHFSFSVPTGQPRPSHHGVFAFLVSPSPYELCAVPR
Method: (§3) The working solutions of the test compounds and the standard inhibitors were prepared in DMSO (100× final concentration). 20 ul of substrate solution (5 in 1 cocktail) was added to the wells followed by 2 ul test compound solution was added. 158 ul of human liver microsome (HLM) was added to all the wells of the incubated plate and warmed to 37° C. for 10 mins. 20 ul of NADPH cofactor solution was then added to all the wells of incubated plate and incubated at 37° C. for 10 mins. At the time point the reaction was quenched by adding 400 uL of cold stop solution. The samples were centrifuged at 4000 rpm for 20 mins to precipitate protein. 100 ul supernatant was diluted with 100 ul of ultra pure water and analyzed using LCMS.

CYP2C9 = CYP2C9 (Homo sapiens, UniProt P11712); test: CYP Inhibition; settings: human
CYP2C9, sequence (P11712 whole entry): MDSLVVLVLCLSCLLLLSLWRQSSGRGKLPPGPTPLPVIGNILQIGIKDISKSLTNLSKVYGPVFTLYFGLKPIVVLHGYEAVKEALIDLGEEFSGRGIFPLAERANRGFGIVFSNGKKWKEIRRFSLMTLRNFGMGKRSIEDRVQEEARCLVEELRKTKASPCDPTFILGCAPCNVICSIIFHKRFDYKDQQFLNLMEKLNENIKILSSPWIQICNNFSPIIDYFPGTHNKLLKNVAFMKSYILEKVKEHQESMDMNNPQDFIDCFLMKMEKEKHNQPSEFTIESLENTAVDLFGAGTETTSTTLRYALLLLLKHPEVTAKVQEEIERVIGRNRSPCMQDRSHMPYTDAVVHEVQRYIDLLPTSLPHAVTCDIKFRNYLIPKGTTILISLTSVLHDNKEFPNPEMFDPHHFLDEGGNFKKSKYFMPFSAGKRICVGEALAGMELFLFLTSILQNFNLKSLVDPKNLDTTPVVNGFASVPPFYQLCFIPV
Method: as §3

## CNC(=O)C1C(O)CC2(O)CC(O)CC(O)C(O)CCC(O)CC(O)CC(=O)OC(C)C(C)C(O)C(C)C=CC=CC=CC=CC=CC=CC=CC(OC3OC(C)C(O)C(N)C3O)CC1O2 (centres unmarked) [BB]
C. krusei
  MIC C. krusei: 2 µM (≈ 1.87 µg/mL)
[1]
  MIC: 1.734 µM
  Average MIC for AmB analogue: 0.336 μM
A. fumigatus 91
  MIC A. fumigatus 91: 4 µM (≈ 3.75 µg/mL)
A. fumigatus 1100
  MIC A. fumigatus 1100: 2 µM (≈ 1.87 µg/mL)
C. albicans [2]
  MIC C. albicans: 0.5 µM (≈ 0.469 µg/mL)
C. tropicalis
  MIC C. tropicalis: 0.5 µM (≈ 0.469 µg/mL)
A. fumigatus 1163
  MIC A. fumigatus 1163: 4 µM (≈ 3.75 µg/mL)
C. glabrata
  MIC C. glabrata: 0.375 µM (≈ 0.351 µg/mL)
Human erythrocytes
  MHC: >500 µM
[3]
  Cholesterol Binding: No
C. albicans SN250
  MIC C. albicans SN250: 0.5 µM (≈ 0.469 µg/mL)

## CC1C=CC=CC=CC=CC=CC=CC=CC(OC2OC(C)C(O)C(N)C2O)CC2OC(O)(CC(O)CC(O)C(O)CCC(O)CC(O)CC(=O)OC(C)C(C)C1O)CC(O)C2C(=O)NCCN (centres unmarked) [BC]
C. krusei
  MIC C. krusei: 4 µM (≈ 3.86 µg/mL)
[1]
  MIC: 1.750 µM
  Average MIC for AmB analogue: 0.563 μM
A. fumigatus 91
  MIC A. fumigatus 91: 4 µM (≈ 3.86 µg/mL)
A. fumigatus 1100
  MIC A. fumigatus 1100: 2 µM (≈ 1.93 µg/mL)
C. albicans [2]
  MIC C. albicans: 0.5 µM (≈ 0.483 µg/mL)
C. tropicalis
  MIC C. tropicalis: 0.5 µM (≈ 0.483 µg/mL)
A. fumigatus 1163
  MIC A. fumigatus 1163: 2 µM (≈ 1.93 µg/mL)
C. glabrata
  MIC C. glabrata: 0.5 µM (≈ 0.483 µg/mL)
Human erythrocytes
  MHC: 250 µM
[3]
  Cholesterol Binding: Yes?
C. albicans SN250
  MIC C. albicans SN250: 0.5 µM (≈ 0.483 µg/mL)

## CC1C=CC=CC=CC=CC=CC=CC=CC(OC2CC(N)C(O)C(C)O2)CC2OC(O)(CC(O)CC(O)C(O)CCC(O)CC(O)CC(=O)OC(C)C(C)C1O)CC(O)C2C(=O)O (centres unmarked) [C2′deOAmB, reference compound]
[4]
  Toxicity to human cells: nontoxic
[5]
  Ergosterol binding by ITC: bind ergosterol
  Cholesterol binding by ITC: not cholesterol

## C[C@@H]1[C@H](O)[C@@H](C)/C=C/C=C/C=C/C=C/C=C/C=C/C=C/[C@H](O[C@@H]2O[C@H](C)[C@@H](O)[C@H](N)[C@H]2O)C[C@@H]2O[C@](O)(C[C@@H](O)C[C@@H](O)[C@H](O)CC[C@@H](O)C[C@@H](O)CC(=O)O[C@H]1C)C[C@H](O)[C@H]2C(=O)O [C2′epiAmB, C2′epi-Amphotericin B]
C. albicans [6]
  Fungal burden, murine invasive candidiasis: outstanding reductions in fungal burden
[1]; Table 13, C16 amides of C2’epiAmB
  Average MIC: 9030 µM
[1]
  MIC: >6.844 µM
[4]
  Toxicity to human cells: not human cells
rats
  BUN, ALT/AST and mortality, rats: no elevations in BUN or ALT/AST and no mortality
[7]
  Times less potent than AmB: > 32 times
Human erythrocytes
  MHC: >500 µM
[8]
  Times less potent than AmB: 2-16 times
[3]
  Cholesterol Binding: No
[5]
  Ergosterol binding by ITC: bind ergosterol
  Cholesterol binding by ITC: not (detectably) cholesterol
C. albicans SN250
  MIC C. albicans SN250: 0.5 µM (≈ 0.462 µg/mL)

## C=C[C@H]1C[N@@]2CC[C@H]1C[C@@H]2[C@@H](O)c1ccnc2ccc(OC)cc12 [Quinidine, reference compound]
CYP2D6
  inhibition at 10 min, 3 µM: 95.3%

## Nc1ccc(S(=O)(=O)Nc2ccnn2-c2ccccc2)cc1 [Sulfaphenazole, reference compound]
CYP2C9
  inhibition at 10 min, 3 µM: 69.7%
